Assay: log P determination via capillary electrophorese on a cePro9600 from CombiSep
Type: physicochemical
Conditions: pH = 10.0
Experimental: log P determinations were performed via capillary electrophorese on a cePro9600™ from CombiSep.

logP	Compound
logP: 2.2 [pH = 10.0];	Cc1cccc(C(=O)N=S2CCSC2)c1NC(=O)c1cc(C(F)(F)F)nn1-c1ncccc1Cl (centres unmarked) [Example 208]
logP: 3.3 [pH = 10.0];	Cc1cc(Cl)cc(C(=O)N=S(C(C)C)C(C)C)c1NC(=O)c1cc(C(F)(F)F)nn1-c1ncccc1Cl [compound 24]
